Test system: 994946-033-R-J1-PDC complex spheroid viability
Assay: Anticancer human tumor 994946-033-R-J1-PDC patient-derived melanoma cell line growth inhibition [POLQ]
Details: for IC50: curve of first compound; for viability, T/C: stronger effect = lower value
Method: Multicellular complex tumor spheroid response to Polymerase (POL) inhibitors (novobiocin, ART-558, RP6685) in combination with a variety of drugs and investigational agents in selected tumor cell lines
The POL inhibitors (novobiocin, ART-558, and RP6685) were evaluated both individually and in combination with standard of care and investigational anticancer small molecules within a complex spheroid model of solid tumors. . Complex spheroids include a stromal component modeled by human endothelial cells (HUVEC) and fibroblasts modeled by human mesenchymal stem cells (MSCs). The concentration ranges selected for each drug and investigational agent were based upon clinically achievable concentrations if the clinical Cmax of the agent was known.
Compounds. The drugs and investigational agents: novobiocin (NSC847541), ART-558 (NSC835418), RP-6685 (NSC848927), peposertib (NSC802822), ceralasertib (NSC780249), elimusertib (NSC800525), camonsertib (NSC841442), AZD-1390 (NSC803789), olaparib (NSC753686), talazoparib (NSC767125), rucaparib (NSC756644), sotorasib (NSC818433), MRTX-1133 (NSC836407), SN-38 (NSC673596), topotecan (NSC609699), epotoside (NSC141540), doxorubicin (NSC123127), gemcitabine (NSC613327), 5-fluorouracil (NSC19893), paclitaxel (NSC125973), vemurafenib (NSC761431), MSA-2 (NSC828583), SN-011 (NSC837082), adavosertib (NSC754352), prexasertib (NSC758257), carboplatin (NSC241240) and oxaliplatin (NSC266046), were obtained from the National Cancer Institute (NCI) Developmental Therapeutics Program Chemical Repository (21). The FDA-approved anticancer drug set is available from the Developmental Therapeutics Program at https://dtp.cancer.gov/organization/dscb/obtaining/. […] The stock solutions were prepared in dimethyl sulfoxide (DMSO, Sigma-Aldrich, St. Louis, MO, cat. D2650), except for the platinum compounds which were prepared in saline (Quality Biological, Gaithersburg, MD, cat. 114-055-101), at 800-fold the tested concentration and stored at -70 degrees C prior to their use. All drugs and investigational agents were tested over a range starting from a high concentration at or near the clinical Cmax and decreasing in half-log increments. If the clinical Cmax for an agent had not been determined, the highest concentration tested was 10 microM, except for SN-38, which was tested at a high concentration of 1 microM.
Cell Culture. All cells were maintained in an incubator at 37 degrees C and 5% CO2 with 95% humidity. The PDC lines were cultured according to standard operating procedures established by the NCI PDMR (https://pdmr.cancer.gov). Table 3 of the manuscript, lists the cell lines along with the number of the three cell types plated to form the mct-spheroids and media for tumor cell growth. After thawing, all PDC lines, except 997537-175-T-J1-PDC and 415267-285-R-J2-PDC, were cultured in Matrigel-coated flasks prepared with a working solution of 1X Ham's F-12 nutrient mix, without supplementation (Thermo Fisher Scientific, cat. 11765054), 100 U/mL penicillin-streptomycin (Thermo Fisher Scientific, cat. 15140122), and 2.5% Matrigel (Corning Inc., Corning, NY, cat. 354248) for the first three passages. The two PDC lines 997537-175-T-J1-PDC and 415267-285-R-J2-PDC were cultured on uncoated flasks. The 857933-349-R-J2-PDC line was cultured in 6C/Colon 1B media containing advanced DMEM/F-12 (Thermo Fisher Scientific, cat. 12634028), 10 mM HEPES (Thermo Fisher Scientific, cat. 15630080), 1X GlutaMAX supplement (Thermo Fisher Scientific, cat. 35050061), 0.1 mg/mL primocin (InvivoGen, San Diego, CA, cat. ant-pm-2), 10% defined fetal bovine serum, heat inactivated (HyClone Laboratories Inc., Logan, UT, cat. SH30070.03HI), 50% L-WRN conditioned media (ATCC, cat. CRL-3276), 1.25 mM N-Acetyl-L-cysteine (Sigma-Aldrich, cat. A9165), 10 mM nicotinamide (Sigma-Aldrich, cat. N0636), 1X B-27 supplement (Thermo Fisher Scientific, cat. 17504044), 1X N-2 supplement (Thermo Fisher Scientific, cat. […]

[1] = second compound 0.0316 µM, first compound 0.0316 µM
[2] = second compound 0.0316 µM, first compound 0.1 µM
[3] = second compound 0.0316 µM, first compound 0.316 µM
[4] = second compound 0.0316 µM, first compound 1 µM
[5] = second compound 0.0316 µM, first compound 3.16 µM
[6] = second compound 0.0316 µM, first compound 10 µM
[7] = second compound 0.1 µM, first compound 0.0316 µM
[8] = second compound 0.1 µM, first compound 0.1 µM
[9] = second compound 0.1 µM, first compound 0.316 µM
[10] = second compound 0.1 µM, first compound 1 µM
[11] = second compound 0.1 µM, first compound 3.16 µM
[12] = second compound 0.1 µM, first compound 10 µM
[13] = second compound 0.316 µM, first compound 0.0316 µM
[14] = second compound 0.316 µM, first compound 0.1 µM
[15] = second compound 0.316 µM, first compound 0.316 µM
[16] = second compound 0.316 µM, first compound 1 µM
[17] = second compound 0.316 µM, first compound 3.16 µM
[18] = second compound 0.316 µM, first compound 10 µM
[19] = second compound 1 µM, first compound 0.0316 µM
[20] = second compound 1 µM, first compound 0.1 µM
[21] = second compound 1 µM, first compound 0.316 µM
[22] = second compound 1 µM, first compound 1 µM
[23] = second compound 1 µM, first compound 3.16 µM
[24] = second compound 1 µM, first compound 10 µM
[25] = second compound 3.16 µM, first compound 0.0316 µM
[26] = second compound 3.16 µM, first compound 0.1 µM
[27] = second compound 3.16 µM, first compound 0.316 µM
[28] = second compound 3.16 µM, first compound 1 µM
[29] = second compound 3.16 µM, first compound 3.16 µM
[30] = second compound 3.16 µM, first compound 10 µM
[31] = second compound 10 µM, first compound 0.0316 µM
[32] = second compound 10 µM, first compound 0.1 µM
[33] = second compound 10 µM, first compound 0.316 µM
[34] = second compound 10 µM, first compound 1 µM
[35] = second compound 10 µM, first compound 3.16 µM
[36] = second compound 10 µM, first compound 10 µM
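Note: spheroids exposed to drugs for 7 days.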
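Throughout, for viability, T/C: 100% = DMSO vehicle treated spheroids.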

CC1COCCN1c1cc(C2(S(C)(=N)=O)CC2)nc(-c2ccnc3[nH]ccc23)n1 (centres undefined) + Nc1ccc(C#CCN(C(=O)Cc2ncc(C(F)(F)F)cc2C(F)(F)F)c2ccc(F)cc2)nn1
IC50 (second compound 0.0316 µM): 2.25 µM | IC50 (second compound 0.1 µM): 5.7 µM | IC50 (second compound 0.316 µM): 2 µM | IC50 (second compound 1 µM): 2.54 µM | IC50 (second compound 3.16 µM): 5.12 µM | IC50 (second compound 10 µM): > 10 µM | viability, T/C [1]: 91.6% | viability, T/C [2]: 93% | viability, T/C [3]: 76.2% | viability, T/C [4]: 74.6% | viability, T/C [5]: 37.4% | viability, T/C [6]: 42.1% | viability, T/C [7]: 127% | viability, T/C [8]: 135% | viability, T/C [9]: 95% | viability, T/C [10]: 72.4% | viability, T/C [11]: 68.5% | viability, T/C [12]: 37.9% | viability, T/C [13]: 104% | viability, T/C [14]: 86.5% | viability, T/C [15]: 109% | viability, T/C [16]: 59.4% | viability, T/C [17]: 47.9% | viability, T/C [18]: 39.5% | viability, T/C [19]: 124% | viability, T/C [20]: 127% | viability, T/C [21]: 90.3% | viability, T/C [22]: 63% | viability, T/C [23]: 51.3% | viability, T/C [24]: 40% | viability, T/C [25]: 113% | viability, T/C [26]: 110% | viability, T/C [27]: 113% | viability, T/C [28]: 85% | viability, T/C [29]: 70.3% | viability, T/C [30]: 25.3% | viability, T/C [31]: 127% | viability, T/C [32]: 102% | viability, T/C [33]: 108% | viability, T/C [34]: 71.2% | viability, T/C [35]: 67.6% | viability, T/C [36]: 49.9%

O=C(Nc1ccc(O)c(NS(=O)(=O)c2ccc(F)cc2)c1)c1ccc(-c2ccccc2)cc1 + Cc1cccc(N(C)C(=O)C2C(O)CCN2c2nc(C)cc(C(F)(F)F)c2C#N)c1
IC50 (second compound 0.0316 µM): 9.36 µM | IC50 (second compound 0.1 µM): > 10 µM | IC50 (second compound 0.316 µM): 6.51 µM | IC50 (second compound 1 µM): 5.59 µM | IC50 (second compound 3.16 µM): 5.89 µM | IC50 (second compound 10 µM): 2.98 µM | viability, T/C [1]: 90.8% | viability, T/C [2]: 98% | viability, T/C [3]: 112% | viability, T/C [4]: 126% | viability, T/C [5]: 92.9% | viability, T/C [6]: 47.3% | viability, T/C [7]: 108% | viability, T/C [8]: 87.9% | viability, T/C [9]: 118% | viability, T/C [10]: 65% | viability, T/C [11]: 61.3% | viability, T/C [12]: 39.4% | viability, T/C [13]: 84.1% | viability, T/C [14]: 109% | viability, T/C [15]: 91.4% | viability, T/C [16]: 121% | viability, T/C [17]: 74.8% | viability, T/C [18]: 35.2% | viability, T/C [19]: 87.7% | viability, T/C [20]: 95.4% | viability, T/C [21]: 81.2% | viability, T/C [22]: 105% | viability, T/C [23]: 61.9% | viability, T/C [24]: 37.9% | viability, T/C [25]: 73.5% | viability, T/C [26]: 59.4% | viability, T/C [27]: 90.2% | viability, T/C [28]: 73% | viability, T/C [29]: 81.3% | viability, T/C [30]: 28.3% | viability, T/C [31]: 85.5% | viability, T/C [32]: 81.3% | viability, T/C [33]: 95.8% | viability, T/C [34]: 81.3% | viability, T/C [35]: 48.4% | viability, T/C [36]: 26.8%
